According to patent US20030032153A1, “Novel (R)-2,3-butanediol dehydrogenase, methods for producing same, and methods for producing optically active alcohol using the dehydrogenase” (priority 2001, published 2003):

T1: Glycerol dehydrogenase produced from Escherichia coli W-1485 (Escherichia coli, UniProt P0A9S5)
T1 construct: host or cells: Escherichia coli W-1485
T1 sequence (P0A9S5 1-367): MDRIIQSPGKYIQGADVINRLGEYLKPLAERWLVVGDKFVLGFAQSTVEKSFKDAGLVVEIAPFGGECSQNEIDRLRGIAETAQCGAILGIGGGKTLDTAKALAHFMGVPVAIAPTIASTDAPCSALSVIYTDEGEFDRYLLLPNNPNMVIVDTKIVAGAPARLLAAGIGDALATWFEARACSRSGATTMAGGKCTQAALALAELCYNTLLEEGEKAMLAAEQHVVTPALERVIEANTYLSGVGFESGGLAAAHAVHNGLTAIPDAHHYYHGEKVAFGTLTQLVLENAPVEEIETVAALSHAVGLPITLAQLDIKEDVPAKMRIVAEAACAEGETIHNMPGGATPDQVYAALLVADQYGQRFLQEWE


How the values were obtained:
[1] = system: (R)-2,3-butanediol dehydrogenase; experiment: Substrate specificity, reduction reaction of the enzyme obtained in Example 1 with ketones; format: biochemical, Kluyveromyces lactis; conditions: coenzyme NADH; reduction of 4-hydroxy-2-butanone taken as 100
Experimental: (§1) A reaction solution containing 50 mM potassium phosphate buffer (pH 6.5), 0.2 mM NADH, 20 mM 4-hydroxy-2-butanone, and the enzyme is reacted at 30° C., and the decrease in absorbance at 340 nm due to the decrease in NADH is measured. 1 U is defined as the amount of enzyme that catalyzes a decrease of 1 μmol NADH in one minute.
The enzyme obtained in Example 1 was reacted with various alcohols and ketones, and the activity of oxidation and reduction is shown in Table 2. Herein, the relative activity is indicated taking the oxidation of (R)-1,3-butanediol and reduction of 4-hydroxy-2-butanone as 100.

[2] = system: (R)-2,3-butanediol dehydrogenase; experiment: Stereoselectivity, oxidation of alcohol isomers by the enzyme obtained in Example 1; format: biochemical, Kluyveromyces lactis; conditions: coenzyme NAD+; higher oxidation activity between the two isomers taken as 100
Experimental: (§2) A reaction solution containing 50 mM potassium phosphate buffer (pH 6.5), 2.5 mM NAD^+, 20 mM (R)-1,3-butanediol, and the enzyme is reacted at 30° C., and the increase in absorbance at 340 nm due to the increase of NADH is measured. 1 U is defined as the amount of enzyme that catalyzes an increase of 1 μmol NADH in one minute. Further, the quantity of the protein is determined by the pigment bonding method using protein assay kit (Biorad).
The enzyme obtained in Example 1 was reacted with 1,3-butanediol, 1,2-propanediol, 2,3-butanediol, 2-butanol, and 3-chloro-1,2-propanediol, and the activities are shown in Table 3. Herein, the relative activity is indicated, taking the higher oxidation activity between the two isomers as 100. The stereoselectivity for 2,3-butanediol, and 1,2-propandiol of the (R)-2,3-butanediol dehydrogenase according to the present invention was extremely high.

[3] = system: (R)-2,3-butanediol dehydrogenase; experiment: Substrate specificity, oxidation reaction of the enzyme obtained in Example 1 with alcohols; format: biochemical, Kluyveromyces lactis; conditions: for Relative Activity, Oxidation Reaction: coenzyme NAD+, oxidation of (R)-1,3-butanediol taken as 100
Experimental: as §2
Herein, the relative activity is indicated taking the oxidation of (R)-1,3-butanediol and reduction of 4-hydroxy-2-butanone as 100.

[4] = system: (R)-2,3-butanediol dehydrogenase; experiment: Substrate specificity, reduction reaction of the enzyme obtained in Example 1 with ketones; format: biochemical, Kluyveromyces lactis
[5] = molecular target: T1, Glycerol dehydrogenase produced from Escherichia coli W-1485; conditions: J. Biol. Chem. 259: 2124-2129, 1984; NAD+ reduction; cited from earlier work
[6] = Reduction activity on 4-hydroxy-2-butanone of the purified enzyme; format: biochemical, Kluyveromyces lactis; conditions: 4-hydroxy-2-butanone reduction activity
Experimental: as §1
Kluyveromyces lactis strain IFO 1267 was cultured in 1.2 liters of YM medium (glucose 20 g/L, yeast extract 3 g/L, malt extract 3 g/L, peptone 5 g/L, pH 6.0) and the cell bodies were prepared by centrifugation. The resulting wet cell bodies were suspended in 50 mM potassium phosphate buffer (pH 8.0), containing 0.02% 2-mercaptoethanol and 2 mM phenylmethane sulfonylfluoride (PMSF), and after homogenizing with Bead Beater (Biospec), the residue of the cell bodies were removed by centrifugation to obtain a cell-free extract. Protamine sulfate was then added to the cell-free extract followed by centrifugation to obtain enucleated supernatant. […]
The (R)-1,3-butanediol oxidation activity and 4-hydroxy-2-butanone reduction activity of the enzyme obtained in Example 1 were measured by changing only the temperature of the standard reaction conditions. […]

[7] = Oxidation activity on (R)-1,3-butanediol of the purified enzyme; format: biochemical, Kluyveromyces lactis; conditions: (R)-1,3-butanediol oxidation activity
Experimental: as §2
The (R)-1,3-butanediol oxidation activity and 4-hydroxy-2-butanone reduction activity of the enzyme obtained in Example 1 was investigated by changing the pH using potassium phosphate buffer solution, sodium acetate buffer solution, and Britton-Robinson wide-range buffer solution. The oxidation activity and the reduction activity are depicted in FIGS. 2 and 3, respectively, wherein the relative activity are indicated taking the maximum activity as 100. The optimum pH was 6.0 for both reactions, oxidation and reduction.
The (R)-1,3-butanediol oxidation activity and 4-hydroxy-2-butanone reduction activity of the enzyme obtained in Example 1 were measured by changing only the temperature of the standard reaction conditions. […] The optimum reaction temperature was 37° C. for both reactions, oxidation and reduction.

Molecule | Relative Activity, Reduction Reaction [1] | Relative Activity (stereoselectivity) [2] | other results
CCC(=O)CO [1-Hydroxy-2-butanone] | 12100 |  | 
C[C@H](O)CCO [(S)-1,3-butanediol] |  | 35 | 
CCO [Ethanol] |  |  | Relative Activity, Oxidation Reaction [3]: 0
CC(=O)C(C)O (stereo not drawn) [Acetoin] | 101000 |  | 
CC(=O)CC(C)=O [2,4-Pentanedione] | 0 |  | 
(R)-2-butanol |  | 100 | Relative Activity, Oxidation Reaction [3]: 28
n-Butanol |  |  | Relative Activity, Oxidation Reaction [3]: 0
(S)-2-butanol |  | 75 | 
CCOC(=O)CC(=O)CCl [4-Chloro-ethyl acetoacetate] | 0 |  | 
CC(=O)CO [Acetol] | 53600 |  | 
C[C@H](O)CO [(S)-1,2-propanediol] |  | 1 | 
OC[C@@H](O)CCl [(R)-3-chloro-1,2-propanediol] |  | 29 | 
NC(=O)c1ccc[n+]([C@@H]2O[C@H](COP(=O)([O-])OP(=O)(O)OC[C@H]3O[C@@H](n4cnc5c(N)ncnc54)[C@H](OP(=O)(O)O)[C@@H]3O)[C@@H](O)[C@H]2O)c1 [NADP^+, β-nicotinamide adenine dinucleotide phosphate] |  |  | use as a coenzyme in the oxidation reaction [3]: substantially unable to use
NC(=O)C1=CN([C@@H]2O[C@H](COP(=O)(O)OP(=O)(O)OC[C@H]3O[C@@H](n4cnc5c(N)ncnc54)[C@H](OP(=O)(O)O)[C@@H]3O)[C@@H](O)[C@H]2O)C=CC1 [NADPH, reduced β-nicotinamide adenine dinucleotide phosphate] |  |  | use as a coenzyme in the reduction reaction [4]: substantially unable to use
C[C@@H](O)CCO [(R)-1,3-butanediol] |  | 100 | Relative Activity, Oxidation Reaction [3]: 100
C[C@@H](O)[C@@H](C)O [(2R, 3R)-butanediol, (2R,3R)-2,3-butanediol] |  | 100 | Vmax [5]: 28.0 U/mg protein; Relative Activity, Oxidation Reaction [3]: 15600

Molecule | Relative Activity, Reduction Reaction [1] | Relative Activity (stereoselectivity) [2] | other results
OCC(O)CO [Glycerin] |  |  | Relative Activity, Oxidation Reaction [3]: 66
CC(C)O [Isopropyl alcohol] |  |  | Relative Activity, Oxidation Reaction [3]: 48
CCC(=O)CC [3-Pentanone] | 100 |  | 
CC(=O)C(C)=O [2,3-Butanedione] | 46400 |  | 
CCOC(=O)CC(C)=O [Ethyl acetoacetate] | 0 |  | 
CC(=O)CCO [4-Hydroxy-2-butanone] | 100 |  | 
C[C@@H](O)CO [(R)-1,2-propanediol] |  | 100 | Relative Activity, Oxidation Reaction [3]: 13800
CCC(C)=O [2-Butanone] | 31 |  | 
CCC(=O)C(C)=O [2,3-Pentanedione] | 51400 |  | 
OC[C@H](O)CCl [(S)-3-chloro-1,2-propanediol] |  | 100 | Relative Activity, Oxidation Reaction [3]: 128
C[C@H](O)[C@H](C)O [(2S,3S)-2,3-butanediol] |  | 1 | 
CC(=O)c1ccccc1 [Acetophenone] | 36 |  | 
CC(C)=O [Acetone] | 63 |  | 
O=C(CO)c1ccccc1 [2-Hydroxy-acetophenone] | 360 |  | 
enzyme obtained in Example 1: NAD+-dependent (R)-2,3-butanediol dehydrogenase purified from Kluyveromyces lactis strain IFO 1267 (SEQ ID NO:2) (protein, listed as Kluyveromyces lactis) MRALAYFGKQDIRYTKDLEEPVIETDDGIEIEVSWCGICGSDLHEYLDGPIFFPEDGKVHDVSGLGLPQAMGHEMSGIVSKVGPKVTNIKAGDHVVVEATGTCLDHYTWPNAAHAKDAECAACQRGFYNCCAHLGFMGLGVHSGGFAEKVVVSEKHVVKIPNTLPLDVAALVEPISVSWHAVRISKLQKGQSALVLGAGPIGLATILALQGHGASKIVVSEPAEIRRNQAAKLGVETFDPSEHKEDAVNILKKLAPGGEGFDFAYDCSGVKPTFDTGVHATTFRGMYVNIAIWGHKPIDFKPMDVTLQEKFVTGSMCYTIKDFEDVVQALGNGSIAIDKARHLITGRQKIEDGFTKGFDELMNHKEKNIKILLTPNNHGELDATN |  |  | optimum pH, reduction [6]: 6.0; specific activity ([6]; after hydroxyapatite column): about 1.5 U/mg; optimum pH, oxidation [7]: 6.0
